Test results from patent US9084422B2, “Anthranilamides compositions” (E I DU PONT DE NEMOURS AND COMPANY, priority 2001, dated 2015).

System: tobacco budworm (Heliothis virescens)
Experiment: Test H: soil systemic control of tobacco budworm on cotton
Format: in vivo
Details: soil treatment at 10 ppm
Method: For evaluating soil systemic control of tobacco budworm (Heliothis virescens), cotton plants were grown in sassafras soil in 15-cm pots in aluminum trays. When the plants reached square stage (bud formation on the plant) the plants were treated with the test compounds.
Test compounds were formulated in 0.25 mL of acetone and then diluted with water to provide solutions of 1, 5, 10 and 50 ppm. 10 mL of the treatment solutions were added to the pots weekly for four weeks, with four replicates of each treatment rate. One day after the second, third and fourth treatments, 35-50 first instar Heliothis virescens larvae were brushed on each plant with paintbrushes and placed on the terminal area, squares, and bolls. Five days after the last infestation with larvae the plants were rated for damage. Of the compounds tested, the following provided excellent levels of plant protection at 10 ppm (10% or less feeding damage): 16.

Cc1cc(Br)cc(C(=O)NC(C)C)c1NC(=O)c1cc(Br)nn1-c1ncccc1Cl [Compound 16]
protection of squares and bolls: no feeding or minimal sepal damage
feeding damage (excellent levels of plant protection) (10 mL weekly for four weeks, rated five days after last infestation): ≤ 10%
